Reference: the supplement of paper PMC10307832

Columns and labels:
Assay in all cases: relative viability (nuclei count vs DMSO), 5 days (fraction); higher = more cells survive
[1] = compound: CO[C@H]1C[C@@H]2CC[C@@H](C)[C@@](O)(O2)C(=O)C(=O)N2CCCC[C@H]2C(=O)O[C@H]([C@H](C)C[C@@H]2CC[C@@H](OCCO)[C@H](OC)C2)CC(=O)[C@H](C)/C=C(\C)[C@@H](O)[C@@H](OC)C(=O)[C@H](C)C[C@H](C)/C=C/C=C/C=C/1C [Everolimus] + Nc1ncn([C@H]2C[C@H](O)[C@@H](CO)O2)c(=O)n1 [Decitabine] (partner 2 µM)
How it was run: (§1)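 A single step with final 0.05% Triton X-100, 1% formaldehyde and 1 ug/ml Hoechst fixed the cells and stained nuclei 5 days after treatment. Lung cancer cell lines in 1536-well plates had been treated by pin tool the day after seeding with one drug alone or a fixed anchor-drug dose plus five library-drug doses (not always all listed) in √10 steps, and nuclei were counted on 4× images. Relative viability is the ratio of nuclei in treated wells to nuclei in vehicle wells, taken as the median of duplicate plates.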

[2] = compound: CO[C@H]1C[C@@H]2CC[C@@H](C)[C@@](O)(O2)C(=O)C(=O)N2CCCC[C@H]2C(=O)O[C@H]([C@H](C)C[C@@H]2CC[C@@H](OCCO)[C@H](OC)C2)CC(=O)[C@H](C)/C=C(\C)[C@@H](O)[C@@H](OC)C(=O)[C@H](C)C[C@H](C)/C=C/C=C/C=C/1C [Everolimus] + CS(=O)(=O)CCNCc1ccc(-c2ccc3ncnc(Nc4ccc(OCc5cccc(F)c5)c(Cl)c4)c3c2)o1 [Lapatinib] (partner 2 µM)
How it was run: as §1

[3] = compound: CO[C@H]1C[C@@H]2CC[C@@H](C)[C@@](O)(O2)C(=O)C(=O)N2CCCC[C@H]2C(=O)O[C@H]([C@H](C)C[C@@H]2CC[C@@H](OCCO)[C@H](OC)C2)CC(=O)[C@H](C)/C=C(\C)[C@@H](O)[C@@H](OC)C(=O)[C@H](C)C[C@H](C)/C=C/C=C/C=C/1C [Everolimus] + O=C(c1cc(Cc2n[nH]c(=O)c3ccccc23)ccc1F)N1CCN(C(=O)C2CC2)CC1 [Olaparib] (partner 8 µM)
How it was run: as §1

[4] = compound: CO[C@H]1C[C@@H]2CC[C@@H](C)[C@@](O)(O2)C(=O)C(=O)N2CCCC[C@H]2C(=O)O[C@H]([C@H](C)C[C@@H]2CC[C@@H](OCCO)[C@H](OC)C2)CC(=O)[C@H](C)/C=C(\C)[C@@H](O)[C@@H](OC)C(=O)[C@H](C)C[C@H](C)/C=C/C=C/C=C/1C [Everolimus] + NC(=O)Nc1cc(-c2cccc(F)c2)sc1C(=O)N[C@H]1CCCNC1 [AZD7762] (partner 0.2 µM)
How it was run: as §1

Row | Cell Line | relative viability ([1]; first compound 0.01 µM) | relative viability ([1]; first compound 0.03162 µM) | relative viability ([1]; first compound 0.1 µM) | relative viability ([1]; first compound 0.3162 µM) | relative viability ([1]; first compound 1 µM) | relative viability ([2]; first compound 0.01 µM) | relative viability ([2]; first compound 0.03162 µM) | relative viability ([2]; first compound 0.1 µM) | relative viability ([2]; first compound 0.3162 µM) | relative viability ([2]; first compound 1 µM) | relative viability ([3]; first compound 0.01 µM) | relative viability ([3]; first compound 0.03162 µM) | relative viability ([3]; first compound 0.1 µM) | relative viability ([3]; first compound 0.3162 µM) | relative viability ([3]; first compound 1 µM) | relative viability ([4]; first compound 0.01 µM) | relative viability ([4]; first compound 0.03162 µM) | relative viability ([4]; first compound 0.1 µM) | relative viability ([4]; first compound 0.3162 µM) | relative viability ([4]; first compound 1 µM)
1 | 201T | 0.758 | 0.757 | 0.635 | 0.705 | 0.716 | 0.911 | 1 | 0.852 | 0.882 | 0.938 | 0.716 | 0.802 | 0.724 | 0.786 | 0.783 | 0.466 | 0.476 | 0.407 | 0.421 | 0.47
2 | A549 | 0.193 | 0.194 | 0.179 | 0.174 | 0.193 | 0.682 | 0.5 | 0.444 | 0.485 | 0.444 | 0.204 | 0.234 | 0.232 | 0.237 | 0.215 |  |  |  |  | 
3 | A-427 | 0.436 | 0.509 | 0.45 | 0.486 | 0.561 | 0.811 | 0.902 | 0.645 | 0.768 | 0.85 | 0.576 | 0.723 | 0.635 | 0.656 | 0.691 | 0.498 | 0.527 | 0.587 | 0.446 | 0.595
4 | ABC-1 | 0.637 |  | 0.603 |  | 0.883 | 0.925 | 1.13 | 0.751 | 0.816 | 0.873 | 1.17 |  | 1 |  | 0.749 | 0.667 | 0.479 | 0.747 | 0.702 | 0.89
5 | BEN | 0.574 | 0.412 | 0.546 | 0.442 | 0.583 | 0.366 | 0.302 | 0.28 | 0.34 | 0.377 | 0.671 | 0.472 | 0.505 | 0.512 | 0.59 | 0.377 | 0.394 | 0.417 | 0.41 | 0.444
6 | CAL-12T |  |  |  |  |  | 0.483 | 0.426 | 0.33 | 0.463 | 0.433 | 0.527 | 0.486 | 0.483 | 0.473 | 0.379 | 0.62 | 0.529 | 0.497 | 0.446 | 0.644
7 | COR-L23 | 0.312 | 0.308 | 0.325 | 0.369 | 0.323 | 0.744 | 0.829 | 0.804 | 1.01 | 0.918 | 0.321 | 0.346 | 0.334 | 0.282 | 0.352 |  |  |  |  | 
8 | COR-L 105 | 0.516 | 0.529 | 0.522 | 0.502 | 0.548 | 0.351 | 0.288 | 0.316 | 0.38 | 0.262 | 0.649 | 0.627 | 0.497 | 0.581 | 0.516 |  |  |  |  | 
9 | Calu-6 |  |  |  |  |  | 0.987 | 1.02 | 0.907 | 0.927 | 0.994 | 0.624 | 0.68 | 0.646 | 0.552 | 0.705 |  |  |  |  | 
10 | ChaGo-K-1 | 0.5 | 0.478 | 0.461 | 0.419 | 0.458 |  |  |  |  |  | 0.424 | 0.492 | 0.466 | 0.401 | 0.494 | 0.799 | 0.917 | 0.743 | 0.769 | 0.866
11 | EBC-1 |  |  |  |  |  | 0.23 | 0.218 | 0.208 | 0.184 | 0.25 | 0.505 | 0.324 | 0.31 | 0.349 | 0.334 |  |  |  |  | 
12 | EKVX |  | 0.245 | 0.226 | 0.226 | 0.371 | 0.158 | 0.161 | 0.159 | 0.171 | 0.161 |  | 0.493 | 0.494 | 0.561 | 0.558 |  | 0.68 | 0.41 | 0.415 | 0.432
13 | EMC-BAC-2 | 0.743 | 0.81 | 0.659 |  | 0.755 | 0.675 | 0.563 | 0.49 | 0.571 | 0.517 | 0.455 | 0.43 | 0.385 | 0.383 | 0.347 | 0.846 | 0.761 | 0.645 | 0.653 | 0.692
14 | EPLC-272H | 0.312 | 0.291 | 0.259 | 0.306 | 0.327 | 0.615 | 0.73 | 0.543 | 0.605 | 0.587 | 0.552 | 0.484 | 0.428 | 0.429 | 0.483 | 0.133 | 0.229 | 0.172 | 0.172 | 0.222
15 | H3255 | 0.409 | 0.433 | 0.322 | 0.371 | 0.315 | 0.249 | 0.238 | 0.266 | 0.212 | 0.225 | 0.489 | 0.513 | 0.444 | 0.454 | 0.355 | 0.74 | 0.562 | 0.595 | 0.632 | 0.509
16 | HARA | 0.451 | 0.426 | 0.426 | 0.572 | 0.474 | 0.546 | 0.468 | 0.541 | 0.714 | 0.526 | 0.78 | 0.762 | 0.86 | 0.84 | 0.471 | 0.15 | 0.335 | 0.223 | 0.309 | 0.252
17 | HCC-15 | 0.597 | 0.463 | 0.511 | 0.604 | 0.482 | 0.899 | 0.899 | 0.881 | 0.981 | 0.871 | 0.723 | 0.796 | 0.642 | 0.656 | 0.647 | 1.37 | 1.26 | 1.33 | 1.24 | 1.48
